Test results taken from patent publication US20040072737A1, “Echinocandin derivatives, their method of preparation and their application as anti-fungal agents” (Aventis Pharma S.A., priority 1997, published 2004).

system: Glucane Synthesis of Candida Albicans (membranes of Candida albicans); assay: Inhibition of the glucane synthesis of Candida albicans (14C-UDP glucose incorporation by purified membranes); format: biochemical; settings: Candida albicans membrane proteins, 25° C., 1 hour, result in words
Description: A—Inhibition of the Glucane Synthesis of Candida Albicans.
The membranes of Candida albicans are purified according to the process described by Tang and al Antimicrob. Agents Chemother 35, 99-103, 1991. 22.5 μg of membrane proteins are incubated in a mixture of 2 Mm of 14C-UDP glucose (specific activity=0.34 mCi./mmol, 50 μg of α-amylase, 1 Mm of dithiotreitol (DTT), 1 Mm EDTA, 100 Mm NaF, 7 μM of GTP-γ-S, 1M of sucrose and 5 oMm OF Ttris-HCL (pH 7.8) in a volume of 100 μl. The medium is incubated at 25° C. for 1 hour and the reaction terminated by addition of TCA to a final concentration of 5%. The reaction medium is transferred onto a pre-humidified glass fibre filter. The filter is washed, dried and its radioactivity is counted.
Mulundocandin is used as positive control.
The control of the medium is carried out with the same quantity of DMSO 1%.

| Substance | Inhibition of the glucane synthesis of Candida albicans |
| --- | --- |
| Trifluoroacetate of 1-[4-[(2-aminoethyl) amino]-N2-(12-methyl-1-oxotetradecyl)-L-ornithine]4-[4-(4-hydroxyphenyl)-L-threonine]-5-L serine echinocandin B (isomer A and isomer B) [Example 9] | good activity |
| (±) Trifluoroacetate of 1-[4-[(aminoiminomethyl) hydrazono]-N2-(12-methyl-1-oxotetradecyl)-L-ornithine]4-[4-(4-hydroxyphenyl)-L-threonine]-5-L serine echinocandin B [Example 11] | good activity |
| Trifluoroacetate of 1-[4-[(2-aminoethyl) amino]N2-[[4′-(octyloxy)[1.1′-biphenyl]-4-[carbonyl]-L-ornithine]4-[4-(4-(4-hydroxyphenyl)-L-threonine]-5-L serine echinocandin B (isomer A) [Example 14] | good activity |
